Experimental data: patent US12440471B2, “Compositions and methods for the treatment of bronchopulmonary dysplasia (BPD) and BPD-associated pulmonary hypertension” (AyuVis Research, Inc., priority 2021, dated 2025)
One block for each molecule: values may come before it.

Legend:
[1] = Oral PK of nanomilled formulations in adult SD rats; assay type: in vivo, rat; conditions: rat, in vivo, po, 100 mg/kg
Procedure: The test item, the stabilizer (HPC-SSL) and the surfactant (SDS) were accurately weighed and transferred in a 15-mL amber glass jar charged with 6 mL of yttrium-stabilized zirconia beads (0.8 mm). The suspension was brought to final weight with water in order to achieve the desired final concentration. The formulation was mixed using a vortex for at least 1 minute and then homogenized using a roller mill (Unitized Jar Mill, Model 755 RMV from U.S. Stoneware (purchased from Fisher Scientific Canada cat #08-381-1) at 50 rpm for 48 hours.
For the animal study, the suspensions prepared at 50 mg/mL were diluted to 10 mg/mL using a blank vehicle prepared using the same proportions of excipients as those indicated in Table I. By diluting the concentrated suspension of AVR-84 a clear solution was obtained whereas for AVR-48 the solution was a homogeneous cloudy solution.
Animals and dosing: The male SD rats (N=3) were obtained from Charles River. Each animal was weighed before the administration of the test item. […] At the specified time points, t=15′, 30′, 1 h, 2 h, 3 h, 4 h, 6 h, 8 h and 24 h (N=3), blood (100 μL) was collected via the saphenous vein using MINIVETTE® POCT K3-EDTA. The blood samples were centrifuged for 10 min at 965 g and 4° C. within 30 min of collection, to obtain plasma. Plasma samples were kept frozen at −80° C. The plasma samples were thawed on ice and kept on ice during the sample preparation. Thirty μL of plasma samples were mixed with 75 μL of precipitation solution (80% acetonitrile and 20% methanol containing IS) was added. Samples were mixed and centrifuged at 3500 rpm for 10 min at 4° C. Forty μL of the supernatant was transferred to a 96 well plate, and 80 μL of water+0.1% formic acid was added and analyzed using the in house developed HPLC method.

TLR4 = target: T1, TLR4 (Homo sapiens, UniProt O00206); test: TLR4 assay: unbound TLR4 ELISA in PMA-stimulated THP-1 cell lysates; assay type: binding; conditions: THP-1 human monocyte cells
T1 construct: Cell lysates were prepared, total protein was quantified and treated with different concentrations; host or cells: THP-1 cells stimulated with PMA for 48 h, then lysed
Procedure: FIG. 26A, TLR4 assay: 1×10^5 THP cells (ATCC) were seeded in 24 well plates and stimulated with phorbol myristyl actetate (PMA, 200 ng/mL) for 48 h. Cell lysates were prepared, total protein was quantified and treated with different concentrations (4, 16, 62.5 and 250 μM) of the AVR-48 for 2 h. ELISA was performed after to assess unbound TLR4 following manufacturer's instruction (Raybiotech). TLR4 IC50 of the AVR-48 was calculated using GraphPad Prism7.04.

[2] = tested on: hyperoxia-exposed BPD mouse model; test: Hyperoxia-exposed BPD mouse model: dose response and lung morphometry; assay type: in vivo; conditions: mouse, in vivo
Procedure: Simultaneously, the AVR-48 nanosuspension formulation IN (0.11 mg/kg) was tested as well as in solution form, IP and IV (10 mg/kg) (through the facial vein), and confirmed that all routes of administration gave similar outcomes. […] From the PK study, as described above, the bioavailability of the drug in the plasma and lungs were similar when delivered as solution formulation via either IN or IP routes. As the goal of this study is to develop AVR-48 as a commercially viable and applicable therapeutic candidate for BPD, the IP route was selected as the preferred mode of drug delivery in neonatal murine pups, with the rationale that it would be easier to deliver the drug systemically to preterm babies IV, rather than the IN route. The results and outcome of all the routes of administration have been presented in a cumulative manner, as the endpoint was similar for all routes of administration. […] FIG. 1 is a dose response study of AVR-48 at different doses of […], given IP. ****p<0.0001. N=5-7 mice per group. 10 mg/kg (IP) was selected as the most efficacious dose. IP: intraperitoneal; Hyp: hyperoxia; BPD: Bronchopulmonary dysplasia.
Formulation of AVR-48 for efficacy and toxicokinetic studies. For the mouse dose response efficacy studies, AVR-48 was reconstituted in 0.9% sterile normal saline to give a final dose concentration of […] as a colorless solution, and injected IP (30 μl) on P2 and P4. The PLGA encapsulated AVR-48 or the GFP-tagged analog was resuspended in deionized sterile water to make a nanosuspension with final dose concentration of 0.025, 0.05 and 0.11 mg/kg/drop. The surfactant Curosurf® (Cheisi Parma, Italy), available commercially, was delivered IN at a volume of 3 μl per nostril, on P2 and P4. For the toxicokinetic study of AVR-48 in rat pups, a formulation of 10% DMSO, 20% tetraglycol, 20% PEG 400, and 50% sterile water was made fresh before administration (Shah, Das et al. 2021).
(§1) For the hyperoxia experiment, newborn pups were exposed to 100% hyperoxia (P0), along with their mothers, in cages in an airtight Plexiglas chamber (OxyCycler; Biospherix, Redfield, NY, USA) as described previously by the present inventors (Syed, Das et al., 2017, Leary, Das et al. 2019, Das, Acharya et al. 2020, relevant portions incorporated herein) for 4 consecutive days (till P4) and removed to RA on P5 to be recovered till P14, so as to emulate the human BPD condition. All pups were sacrificed on P14 for further experimental analyses. The pups without any hyperoxia exposure served as the corresponding RA (normoxia) controls.
Histology, immunohistochemistry and immunofluorescence. Both the RA control and BPD mice were anesthetized (using an overdose of a cocktail of xylazine-ketamine) and lung and heart tissues were harvested after perfusion and fixed overnight in 4% paraformaldehyde. Fixed tissues were then washed in fresh PBS, dehydrated using 70% ethanol, cleared, and embedded in paraffin to be sectioned and stained with hematoxylin and eosin (H&E) for lung morphometry or immunohistochemistry/immunofluorescence as previously described (Leary, Das et al. 2019, Das, Achaiya et al. 2020, Das, Curstedt et al. 2020). Immunofluorescence staining was done for Ki67 (Abcam, 1:10) and Von Wilebrand Factor (vWF-DAKO, 1:100) on lung paraffin sections following the protocol as described earlier (Leary, Das et al. 2019) while TUNEL staining was done following the manufacturer's instructions (Roche).
Morphometry and quantification. To study chord length, septal thickness and radial alveolar count in the lungs, RV, LV and IVS thickness, 5 μm-thick left-lobe lung and heart paraffin-embedded sections were stained with H&E. Multiple randomly chosen areas (at least 10 areas) from each section were photographed using 100× total magnification. […]

[3] = tested on: hyperoxia-exposed BPD mouse model; test: BPD mouse model: bronchoalveolar lavage fluid (BALF) analysis; assay type: in vivo; conditions: 10 mg/kg; vs BPD group
Text: as §1
Bronchoalveolar lavage fluid (BALF) Analysis. Pups were sacrificed on PN14, and the trachea was cannulated with a small-caliber needle by instilling PBS endotracheally at […] pressure for 15 minutes. Two volumes of 300 μL of cold 1×PBS were instilled, gently aspirated, and pooled. Samples were centrifuged at 1000×g for 10 minutes at 4° C. The supernatant was collected, and total protein was quantified using the Pierce™ BCA Protein Assay Kit (Fisher Scientific Co, Houston, TX). The total cell count was done using the TC20 cell counter (BioRad, Hercules, CA). Similar method was followed for analyzing the protein concentration in BAL fluid collected from preterm lambs.

[4] = tested on: human cord blood monocytes (CBMC); test: Cytokines in human cord blood monocytes (CBMC); assay type: cell-based; conditions: compound alone (10 μM) or with LPS, compared with only LPS
Text: IL-12p40, is a marker for the innate immune response to infection and is down regulated in CBMC.

T1 sequence (O00206 24-839): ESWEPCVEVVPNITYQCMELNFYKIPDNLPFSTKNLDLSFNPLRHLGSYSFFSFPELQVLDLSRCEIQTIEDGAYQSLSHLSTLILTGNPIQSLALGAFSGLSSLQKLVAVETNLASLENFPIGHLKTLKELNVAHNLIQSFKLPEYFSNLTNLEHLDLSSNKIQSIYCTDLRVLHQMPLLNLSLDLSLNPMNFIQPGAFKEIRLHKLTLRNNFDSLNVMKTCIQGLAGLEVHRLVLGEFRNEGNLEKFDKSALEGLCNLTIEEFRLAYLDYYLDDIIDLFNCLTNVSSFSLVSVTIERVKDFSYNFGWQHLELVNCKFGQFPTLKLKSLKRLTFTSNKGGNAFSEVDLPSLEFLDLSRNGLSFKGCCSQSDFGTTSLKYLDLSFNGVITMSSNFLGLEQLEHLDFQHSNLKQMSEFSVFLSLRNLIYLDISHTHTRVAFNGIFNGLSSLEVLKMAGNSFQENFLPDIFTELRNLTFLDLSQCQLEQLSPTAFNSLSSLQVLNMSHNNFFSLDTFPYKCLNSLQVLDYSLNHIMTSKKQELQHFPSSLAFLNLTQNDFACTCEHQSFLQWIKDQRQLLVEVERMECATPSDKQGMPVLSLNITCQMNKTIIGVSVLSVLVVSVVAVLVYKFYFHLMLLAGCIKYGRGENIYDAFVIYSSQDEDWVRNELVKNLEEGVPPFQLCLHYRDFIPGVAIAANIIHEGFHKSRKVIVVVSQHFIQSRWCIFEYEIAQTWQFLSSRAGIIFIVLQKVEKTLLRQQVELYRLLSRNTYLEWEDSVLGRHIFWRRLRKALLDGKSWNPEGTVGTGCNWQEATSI

- Cmax [1]: 4.56 µM
- Tmax [1]: 0.5 ± 0.0 h
- half-life (T v2) [1]: 1.66 ± 1.0 h
- plasma concentration profile [1]: linear decline in drug concentration
Compound: CC(=O)N[C@@H]1C(Oc2ccc3nonc3c2)OC(CO)C(O)C1O (stereo partly shown) [AVR-84]

- binding to TLR4 (TLR4): bind TLR4
Compound: CC(=O)NC1[C@H](Oc2ccc(C(=O)N[C@@H]3OC(CO)[C@@H](O)[C@H](O)C3NC(C)=O)cc2)OC(CO)[C@@H](O)[C@@H]1O (stereo partly shown) [Compound 3]
- inflammatory cytokines in neonatal mouse pups with BPD [2]: decrease inflammatory cytokines

- binding to TLR4 (TLR4): bind TLR4
Compound: CC(=O)N[C@@H]1C(Oc2ccc(B3OC(C)(C)C(C)(C)O3)cc2)OC(CO)C(O)C1O (stereo partly shown) [Compound 32]
- inflammatory cytokines in neonatal mouse pups with BPD [2]: decrease inflammatory cytokines

Compound: CCOC(=O)C1=CCCC[C@H]1S(=O)(=O)Nc1ccc(F)cc1Cl [TAK 242, reference compound]
- total inflammatory cells in BALF [3]: did not affect
- IL-12p40 response [4]: decrease the LPS induced increase in IL-12p40 level
